Results: patent US7510830B2, “Cancer treatment by combination therapy” (Cancer Research Technology Limited, priority 2000, dated 2009)
“Also recorded” adds a separate entry of the source. Like-named read-outs stand apart in the source and are kept apart here.

Legend:
[1] = system: TNF production in human peripheral blood leucocytes (HPBL); assay type: cell-based
Method: Partially purified buffy coats were purchased from Auckland Blood Centre and divided into 15-ml, aliquots in 50-ml centrifuge tubes (2070 Conical Tubes, Becton Dickinson Labware, N.J., USA). HPBL in tissue culture dishes (10 ml; 10^7 cells/ml) were incubated overnight in α-MEM culture medium supplemented with FCS (10% v/v), streptomycin sulphate (100 μg/ml) and penicillin-G (100 units/ml). All extraction operations were carried out at 7° C. to prevent clotting. Unsupplemented α-MEM medium was added to 30 ml and a 10-ml layer of Ficoll-Paque PLUS was slowly added to the bottom of the tubes. After centrifugation at 300 g for 30 min the upper layer was removed and the HPBL layer was carefully drawn off into a fresh 50-ml centrifuge tube. The volume was adjusted to 50 ml, the cells were centrifuged at 300 g, and HPBL were resuspended in supplemented α-MEM medium and added (1 ml/well) to 24 well plates (Nunc, Kamstrup, Roskilde, Denmark). Agents (made up at twice the final concentration) were added and plates were incubated for the appropriate times in 5% CO2air at 37° C. overnight. DMXAA sodium salt (this laboratory) was dissolved in medium and protected from light FAA (National Cancer Institute, USA) was dissolved in 5% (w/v) sodium bicarbonate and diluted with medium. Interleukin-laipha (R&D Systems, USA), okadaic acid, LPS and deacylated LPS (Sigma Chemical Co., USA) were dissolved in α-MEM, filter-sterilised and used immediately. The MEM-18 mouse anti-human CD14 IgG antibody was obtained from Sanbio bv, am Uden, Netherlands, and was freed from azide before use by ultrafiltration.
After the appropriate incubation period of HPBL with drug, supernatants were either used immediately or stored at −20° C. TNF standards were prepared by making serial dilutions of the TNF stock solution in supplemented culture media (concentration range 10-10,000 pg/ml). ELISA plates were made using the OptEIA Human TNF-alpha Set (Pharmingen, San Diego, Calif., USA). TNF standards and samples were added to the ELISA plates and the assays were carried out according to the makers' directions.

[2] = system: TNF production in murine leucocytes; assay: TNF production in cultured murine leucocytes in vitro (8 h, ELISA); assay type: cell-based, mouse
Method: The effect of DMXAA on cultured murine leucocytes has also been investigated using LPS as a control. TNF was measured by enzyme-linked immunosorbent assay after 8 h.
Blood samples for extraction of leucocytes were taken by cardiac puncture of halothane-anaesthetised mice into 1-ml syringes containing ACD-A anticoagulant (0.1 ml). All extraction operations were carried out at 7° C. to prevent clotting. Samples were pooled and unsupplemented α-MEM was added to 30 ml and a 10-ml layer of Ficoll-Paque PLUS™ was slowly added to the bottom of the tubes. After centrifugation at 300×g for 30 min the upper layer was removed and the leucocyte layer was carefully drawn off into a fresh 50-ml centrifuge tube. The volume was adjusted to 50 ml with unsupplemented growth medium, the cells were centrifuged at 300×g, and the leucocytes were resuspended at 10^7 cells/ml in α-MEM supplemented with foetal bovine serum (10% v/v), streptomycin sulphate (100 μg/ml) and penicillin-G (100 units/ml).
Cells were added either to 24 well plates (1 ml/well; Nunc, Kamstrup, Roskilde, Denmark) or to 100 mm Petri dishes (10 ml/plate) and incubated in 5% CO2/air at 37° C. overnight. Agents (made up at twice the final concentration in growth medium) were added and plates were further incubated for 8 hours. After the appropriate incubation period of HPBL with drug in 24-well plates, supernatants were removed and either assayed immediately or stored at −20° C.
TNF standards were prepared by making serial dilutions of the TNF stock solution in supplemented culture media (concentration range 10-10,000 pg/ml). ELISA (enzyme-linked immunosorbent assay) plates were made using the OptEIA Human TNF-alpha-Set (Pharmingen, San Diego, Calif., USA). TNF standards and samples were added to the ELISA plates and the assays were carried out according to the manufacturer's directions.

[3] = system: serum TNF in C57BL mice; assay: In vivo serum TNF in mice with or without antibiotic pre-treatment; design: species or system mouse
Method: To test the hypothesis that low concentrations of LPS synergise with DMXAA for in vivo TNF production, mice were treated orally with antibiotics for […] and then treated with 25 mg/kg DMXAA. TNF levels were measured […]. C57BL mice were either untreated, or treated for 4 days prior to DMXAA with a mixture of antibiotics (cephalocin 2 g/l and neomycin 2 g/l in the drinking water). Mice received a single i.p. dose of DMXAA (25 mg/kg) and blood was collected by cardiac puncture of halothane-anaesthetised mice after 3 hours. Blood from each mouse was transferred to individual microcentrifuge tubes and allowed to clot overnight on ice before centrifugation at 2000×g for 20 minutes at 4° C. If clotting was not complete the sample was allowed to stand on ice for a further 2 hours, after which it was re-centrifuged. Serum was drawn off the top of the blood samples and stored at −20° C. until assay of TNF content. […] ELISA (enzyme-linked immunosorbent assay) plates were made using the OptEIA Human TNF-alpha-Set (Pharmingen, San Diego, Calif., USA). TNF standards and samples were added to the ELISA plates and the assays were carried out according to the manufacturer's directions.

[4] = system: murine tumours; conditions: cited from earlier work
[5] = system: cancer; conditions: humans; cited from earlier work
[6] = cited from earlier work

## Cc1ccc2c(=O)c3cccc(CC(=O)O)c3oc2c1C [DMXAA, 5,6-dimethylxanthenone-4-acetic acid]
[1]
  TNF production: large increase in TNF production; also recorded: induced a higher degree of TNF production
[1]; DMXAA added to LPS, peripheral blood monocytes
  induction of TNF by low concentrations of LPS: unexpectedly stimulated
[1]; DMXAA added to anti-CD14 antibody, peripheral blood monocytes
  induction of TNF by antibody (MEM-18) to CD14: unexpectedly stimulated
[1]; DMXAA alone, 800 μg/ml, HPBL
  TNF induction: no substantial induction of TNF; also recorded: no substantial effect
[1]; DMXAA alone, cultured HPBL, concentration not given
  TNF induction: little effect on TNF induction
[1]; DMXAA coadministered with IL-1, HPBL (FIG. 4)
  increase in induction of TNF compared to IL-1 alone: up to 56 fold
[2]; DMXAA (800 μg/ml) co-incubated with anti-CD14 antibody (10 μl/well), murine leucocytes (FIG. 7)
  TNF production: high level of TNF production that was even greater than that caused by LPS
[2]; DMXAA (800 μg/ml) coincubated with dLPS (500 μg/ml), murine leucocytes (FIG. 7)
  TNF production: significant (p<0.001) elevation of TNF production
[2]; DMXAA alone (800 μg/ml), murine leucocytes, 8 h (FIG. 7)
  TNF production: did not significantly increase TNF production
[3]; DMXAA 25 mg/kg i.p. following antibiotic treatment, versus mice not receiving antibiotics (FIG. 8)
  serum TNF: increased serum TNF but the increase was significantly smaller (p<0.001)
[3]; DMXAA 25 mg/kg single i.p. dose, mice not receiving antibiotics (FIG. 8)
  serum TNF concentrations: substantially increased serum TNF concentrations
[4]
  antitumour activity: significant antitumour activity
[5]
  clinical anti-cancer activity: marginal clinical anti-cancer activity
[6]
  water solubility: highly water soluble

## C=C1[C@@H](O)[C@@H]2O[C@]3(CC[C@H](/C=C/[C@@H](C)[C@@H]4CC(C)=C[C@@]5(O[C@H](C[C@@](C)(O)C(=O)O)CC[C@H]5O)O4)O3)CC[C@H]2O[C@@H]1[C@@H](O)C[C@H](C)[C@H]1O[C@@]2(CCCCO2)CC[C@H]1C [OA, okadaic acid, reference compound]
[1]; OA alone at concentrations higher than 20 ng/ml, HPBL
  TNF synthesis: induced TNF synthesis
[1]; OA alone at concentrations up to 20 ng/ml, HPBL
  TNF induction: no substantial induction of TNF

## CCCCCCCCCCCCCC(=O)O[C@@H]1[C@@H](C)[C@@]2(O)[C@@H](C=C(CO)C[C@]3(O)C(=O)C(C)=C[C@@H]23)[C@@H]2C(C)(C)[C@]12OC(C)=O [PMA, phorbol-12-myristate-13-acetate, reference compound]
[1]; PMA alone at concentrations higher than 20 ng/ml, HPBL
  TNF synthesis: induced TNF synthesis
[1]; PMA alone at concentrations up to 20 ng/ml, HPBL
  TNF induction: no substantial induction of TNF

B1: IL-1: interleukin-1 alpha, inflammatory cytokine (R&D Systems) (protein, UniProt P01583 113-271, looked up)
Interleukin-1 alpha: SAPFSFLSNVKYNFMRIIKYEFILNDALNQSIIRANDQYLTAAALHNLDEAVKFDMGAYKSSKDDAKITVILRISKTQLYVTAQDEDQPVLLKEMPEIPKTITGSETNLLFFWETHGTKNYFTSVAHPNLFIATKQDYWVCLAGGPPSITDFQILENQA
[1]; IL-1 alone, HPBL (FIG. 4)
  TNF induction: capable of inducing TNF
